Experimental data as given in US11633411B2, “Methods of treating sepsis using anti-sepsis lipid A (ASLA) based therapeutics” (UNIVERSITY OF MARYLAND, BALTIMORE, priority 2016, dated 2023).
pEC50: −log10 of the molar value.

How the values were obtained:
C57BL6 mice = experiment: Lethal endotoxic shock mouse model (25 mg/kg E. coli W3110 LPS i.p.); assay type: in vivo; settings: for survival rate: preliminary experiment; for survival: repeat experiment
Description: FIG. 4. ALSA 468 therapeutically rescues mice from lethal endotoxic shock. Lethal endotoxic shock was induced in 6-8 week old C57BL6 mice by injecting 25 mg/kg of E. coli LPS (strain W3110) i.p. […]
To determine if ASLA 468 is capable of therapeutically rescuing mice that have received a lethal dose of pro-inflammatory Ec LPS, an in vivo mouse model of lethal endotoxin septic shock was used. Medzhitov, R. Nat. Rev. Immunol. 2001, 1, 135-145; Remick et al., Shock 2000, 13, 110. […] These pilot experiments provide a proof-of-principle that molecules found to compete with pro-inflammatory LPS in vitro are also capable of combating symptoms of septic shock in vivo. Future sepsis models to be used in this proposal will account for bacterial clearance after antibiotic treatment, in vivo location and concentration of LPS, and the structural relationship between ASLA and MD2/TLR4 complex that will address some shortcomings of previous anti-sepsis therapeutics, which is the scientific premise of this proposal. Raetz et al., Annu. Rev. Biochem. 2002, 71, 635-700; Raetz et al., J. Lipid Res. 2009, 50 Suppl, S103-108; Needham et al., S. Nature Reviews Microbiology 2013, 11, 467-481; Ernst et al., Science 1999, 286, 1561-1565; Miller et al., Nature Reviews Microbiology 2005, 3, 36-46; Siegemund et al., Nat Immunol 2012, 13, 1031-1033; Rietschel et al., FASEB J. 1994, 8, 217-225; van Lieshout et al., Inflamm. Res. 2014, 63, 927-933; Buras et al., Nat Rev Drug Discov 2005, 4, 854-865.
Experimental Setup: Similarly to the non-lethal endotoxic shock model, in this in vivo model of lethal septic shock 6-week old C57BL6 mice were injected intraperitoneally with either 25 mg/kg E. coli (W3110) LPS, co-administered 25 mg/kg Ec LPS+10 mg/kg BECC468@26, or 25 mg/kg Ec LPS followed by 10 mg/kg BECC468@26 four hours later. Mice were monitored for survival every 12 hours post-injection. n=6 mice for each group, percent survival for each group is graphed.

TLR4 [1] = molecular target: T1, TLR4 (Homo sapiens, UniProt O00206+Q9Y6Y9); experiment: NF-κB activation screen in THP-1 Dual reporter cells (SEAP under NFκB promoter); assay type: cell-based; design: host or cells: THP-1 Dual reporter cells
T1 sequence (O00206 24-839): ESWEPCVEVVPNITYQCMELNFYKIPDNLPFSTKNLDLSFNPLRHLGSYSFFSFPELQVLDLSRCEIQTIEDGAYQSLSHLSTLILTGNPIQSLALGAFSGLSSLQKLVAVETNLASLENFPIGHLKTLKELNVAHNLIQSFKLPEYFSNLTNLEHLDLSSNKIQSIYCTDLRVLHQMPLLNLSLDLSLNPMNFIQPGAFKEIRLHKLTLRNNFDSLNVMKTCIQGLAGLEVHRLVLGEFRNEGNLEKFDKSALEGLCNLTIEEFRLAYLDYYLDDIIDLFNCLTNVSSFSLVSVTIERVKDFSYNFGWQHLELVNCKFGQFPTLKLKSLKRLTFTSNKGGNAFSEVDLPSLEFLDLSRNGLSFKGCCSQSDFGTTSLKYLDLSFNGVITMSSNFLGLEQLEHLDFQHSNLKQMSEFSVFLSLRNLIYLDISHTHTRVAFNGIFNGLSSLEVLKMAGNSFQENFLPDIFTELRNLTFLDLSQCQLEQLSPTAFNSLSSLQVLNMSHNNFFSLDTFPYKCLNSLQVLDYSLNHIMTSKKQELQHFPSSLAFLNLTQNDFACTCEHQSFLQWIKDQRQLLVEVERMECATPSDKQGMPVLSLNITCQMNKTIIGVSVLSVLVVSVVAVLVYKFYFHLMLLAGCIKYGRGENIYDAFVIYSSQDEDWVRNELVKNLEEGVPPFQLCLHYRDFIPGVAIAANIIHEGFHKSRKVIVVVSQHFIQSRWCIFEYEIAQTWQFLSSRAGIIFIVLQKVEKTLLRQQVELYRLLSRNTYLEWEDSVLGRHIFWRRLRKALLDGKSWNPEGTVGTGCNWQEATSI
T1 sequence (Q9Y6Y9 17-160 limits assumed): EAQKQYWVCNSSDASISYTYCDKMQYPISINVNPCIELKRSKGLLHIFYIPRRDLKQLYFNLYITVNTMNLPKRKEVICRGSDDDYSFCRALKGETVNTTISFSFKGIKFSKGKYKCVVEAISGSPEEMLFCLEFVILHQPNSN
Description: To identify the most successful ASLA candidates to be tested for efficacy in vivo, we will stimulate both human and mouse cell cultures with increasing concentrations (0.01 ng/ml, 0.1 ng/ml, 1 ng/ml, 10 ng/ml, 100 ng/ml) of novel lipid A preparations for 4 and 24 hours. All in vitro assays will be run in biological triplicate to increase the scientific rigor of experiments. Activation of inflammatory pathways will be investigated by stimulating THP-1 cells (ATTC), a human monocytic cell line, followed by multiplex analysis of cytokines in the supernatant minimally including TNF-α, IL-8, and IL-6. We will also screen ASLA molecules using THP-1 Dual (Invitrogen) and HEK293 cells transfected with human or mouse MD2/TLR4 (Invitrogen), which have an easily detectable SEAP transcript under the NF-kB promoter to quickly evaluate the potential for these ASLA molecules to inhibit MyD88-NF-kB activation. To account for authentication of key biological resources, all cell lines were purchased from and verified by either ATCC or Invitrogen within the past year and cells used in experiments have been passaged less than 15 times since purchase. Together, these assays will illustrate a lack of inflammatory activation when cells are stimulated with the ASLA molecules. […]

TLR4 [2] = molecular target: T1, TLR4; experiment: Competitive inhibition of pro-inflammatory LPS in THP-1 Dual reporter cells; settings: Se LPS plus ASLA 470
Description: THP-1 Dual cells (Invitrogen) contain an easily detected secreted alkaline phosphatase (SEAP) under the NFκB promoter. E. coli LPS (circles), ALSA 468 (squares), and E. coli LPS+a constant 10 ng/mL ASLA 468 (triangles) are cultured with THP-1 Dual over a 5-log dilution series, activation of NFκB, as measured by SEAP expression, is pictured.
To investigate the inflammatory properties of BECC synthesized molecules ASLA 468 and 470, THP-1 Dual cells (Invitrogen) were used to screen for NF-κB activation.
Experimental Setup: Reporter cell line THP-1 Duals (Invitrogen) are incubated for 18 hours over a five-log dose range with either Salmonella enterica (Se) LPS alone, BECC molecule alone (467@26, 468@26, 468@37, 469@26, 470@26, 470@37), or increasing doses of Se with a constant dose of BECC molecule (10 ng/mL). THP-1 Dual cells have a SEAP reporter under the NFκB promoter that is easily quantified in the supernatant of cultured cells. After 18 hours of culture supernatant is removed from the cell culture and SEAP is quantified to indicate the level of NFκB activation/inflammation. OD@620 nm can be directly extrapolated to represent relative amounts of NFκB activation. […] Mean±SD of duplicate samples is graphed for each data point.

Compound	survival rate (C57BL6 mice; 10 mg/kg given 4 hours after 25 mg/kg Ec LPS)	survival rate (C57BL6 mice; 10 mg/kg given simultaneously with 25 mg/kg Ec LPS)	pathogenic symptoms (C57BL6 mice; mice injected with ASLA 468 alone)	survival (C57BL6 mice; treated 8 hours post-induction)	survival (C57BL6 mice; treated 12 hours post-induction)	pEC50 (TLR4 [1])	fold increase of the EC50 of Se LPS (TLR4 [2])	agonist category (full, partial, or weak agonist) for NF-κB activation (TLR4 [1]; five-log dilution series, compared to Ec LPS positive control)
CCCCCC/C=C\CCCCCCCC(=O)OC(CCCCCCCCCCC)CC(=O)NC1[C@H](OCC2OC(OP(=O)(O)O)C(NC(=O)CC(O)CCCCCCCCCCC)[C@@H](OC(=O)CC(O)CCCCCCCCCCC)[C@@H]2O)OC(CO)C(O)[C@@H]1OC(=O)CC(CCCCCCCCCCC)OC(=O)CCCCCCCCCCC (some centres unmarked) [ASLA 468]	66.6%	100%	no signs of pathogenic symptoms	100%	66.6%	7.16		
CCCCCC/C=C\CCCCCCCC(=O)OC(CCCCCCCCCCC)CC(=O)NC1[C@H](OCC2OC(OP(=O)(O)O)C(NC(=O)CC(CCCCCCCCCCC)OC(=O)CCCCCCCCCCCCCCC)[C@@H](OC(=O)CC(O)CCCCCCCCCCC)[C@@H]2O)OC(CO)C(O)[C@@H]1OC(=O)CC(CCCCCCCCCCC)OC(=O)CCCCCCCCCCC (some centres unmarked) [ASLA 470]							1.9 fold	weak agonists
